From PubChem BioAssay (NCI)
“And” between values parts separate entries of the source, which are not always exact repeats. Identical values can stand only once.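 Test compounds were applied to cells in 96-well plates for 48 hours at 5 doses. GI50 marks 50% less growth. TGI is the concentration that stops growth completely.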

Assays:
Test in all cases: NCI-60 cell line screen, 48 h
[1] = test system: U251 CNS
[2] = test system: UO-31 renal
[3] = test system: 786-0 renal
[4] = test system: CCRF-CEM leukemia
[5] = test system: OVCAR-8 ovarian
[6] = test system: HCT-116 colon
[7] = test system: MDA-MB-231 breast
[8] = test system: SK-OV-3 ovarian
[9] = test system: SNB-19 CNS
[10] = test system: MOLT-4 leukemia

| SMILES | GI50 [1] [µM] | TGI [1] | GI50 [2] [µM] | TGI [2] | GI50 [3] [µM] | TGI [3] | GI50 [4] [µM] | TGI [4] | GI50 [5] [µM] | TGI [5] | GI50 [6] [µM] | TGI [6] | GI50 [7] [µM] | TGI [7] [µM] | GI50 [8] [µM] | TGI [8] | GI50 [9] [µM] | TGI [9] | GI50 [10] [µM] | TGI [10] |
| --- | --- | --- | --- | --- | --- | --- | --- | --- | --- | --- | --- | --- | --- | --- | --- | --- | --- | --- | --- | --- |
| c1ccc2nc(Cn3c[n+](Cc4ccc5ccccc5n4)c4ccccc43)ccc2c1 | 3.08 | 12.8 µM | 7.08 | 21.7 µM | 4.2 | 16.4 µM | 3.47 | 21 µM | 3.13 | 11.3 µM | 2.4 | 12.2 µM | 1.59 | 4.46 | 3.03 | 11.3 µM | 2.22 | 10.4 µM | 3.37 | 13 µM |
| CN(C)c1ccc2nc3ccc(=[N+](C)C)cc-3oc2c1 | 0.725 | 4.8 µM | 12.8 | 89.3 µM | 16.5 | 90.9 µM | 1.21 | 32.2 µM | 2.13 | 7.36 µM | 0.892 | 12.1 µM | – | – | 6.65 | 45.2 µM | 2.49 | > 100 µM | 1.76 | 5.04 µM |
| CC1=CC(=O)c2c(O)cccc2C1=O | – | 20.4 µM | – | 2.98 µM | – | 3.01 µM | – | 0.621 µM | – | 3.2 µM | – | 3.11 µM | – | 3.64 | – | 27.2 µM | – | 25 µM | – | 0.762 µM |
| C=C(C)[C@@H]1CC=C(CO)CC1 | > 10 | > 10 µM and 806 µM | > 10 | > 10 µM and 1050 µM | > 10 | > 10 µM and 943 µM | > 10 | > 10 µM and 440 µM | > 10 | > 10 µM and 857 µM | > 10 | > 10 µM and 627 µM | – | > 10 | > 10 | > 10 µM and 2570 µM | > 10 | > 10 µM and 1010 µM | > 10 | > 10 µM and 1050 µM |
| N=C(N)c1nn(C2OC(CO)C(O)C2O)c2nc[nH]c(=O)c12 (stereo not given) | 2.06 | > 37.1 µM | 0.332 | 2.62 µM | 0.642 | 4.61 µM | 0.434 | – | 0.435 | 7.22 µM | 0.347 | 1.29 µM | 0.248 | 0.778 | 0.409 | 2.97 µM | 2.34 | 8.71 µM | 0.491 | 4.12 µM |
| CS(=O)(=O)CC1=Nc2nnc(CCCCCCCc3nnc4n3C(=O)C(CS(C)(=O)=O)=N4)n2C1=O | – | > 100 µM | – | > 100 µM | – | > 100 µM | – | > 100 µM | – | > 100 µM | – | > 100 µM | – | – | – | > 100 µM | – | > 100 µM | – | > 100 µM |
| O=C(CCn1[nH]c(=O)c(Cl)c(Cl)c1=O)NOCCCc1ccccc1 | – | – | – | > 100 µM | – | > 100 µM | – | > 100 µM | – | > 100 µM | – | > 100 µM | – | – | – | – | – | > 100 µM | – | > 100 µM |
| CC(=O)[O][Pb]([O]C(C)=O)([c]1ccccc1)[c]1ccccc1 | 4.69 | 10 µM | > 100 | > 100 µM | 3.53 | > 100 µM | 16.2 | > 100 µM | 7.15 | > 100 µM | 4.81 | > 59.1 µM | – | – | 28.1 | > 100 µM | 23.8 | 46.6 µM | 35 | > 100 µM |
| CN(C)CCCNC(=O)c1cc(NC(=O)CCNS(=O)(=O)c2ccc3c(c2)C(=O)c2ccccc2C3=O)cn1C | – | – | > 100 | > 100 µM | > 100 | > 100 µM | > 100 | > 100 µM | > 100 | > 100 µM | > 100 | > 100 µM | > 100 | > 100 | > 100 | > 100 µM | > 100 | > 100 µM | > 100 | > 100 µM |
| COC12C=CC(CC1)c1c(O)ccc(O)c12 (stereo not given) | – | > 100 µM | – | > 100 µM | – | > 100 µM | – | 65.1 µM | – | > 70.1 µM | – | > 100 µM | – | – | – | > 100 µM | – | > 100 µM | – | > 79 µM |
| Nc1cc(=O)[nH]c(SC2=NC(N)CC(O)C2)n1 (stereo not given) | – | > 100 µM | – | > 100 µM | – | > 100 µM | – | > 100 µM | – | > 100 µM | – | – | – | – | – | > 100 µM | – | > 100 µM | – | > 100 µM |
| COc1cccc(OC(=O)c2ccccc2Nc2ccnc(C(F)(F)F)c2)c1 | 2.86 | 11 µM | 61.2 | > 100 µM | 3.43 | 12.2 µM | – | – | 3.63 | 29.3 µM | 1.12 | 3.07 µM | 2.12 | 16.9 | – | – | 3.52 | > 100 µM | 0.692 | 4.29 µM |
| COC(=O)[C@@H]1CSC(=S)N1C(=O)C[C@H]1CC=CC[C@H]1CC(=O)Sc1ccccc1 | – | 32.4 µM | – | 26.8 µM | – | 32.3 µM | – | 14.9 µM | – | 50.6 µM | – | 30.8 µM | – | – | – | 50 µM | – | 34.8 µM | – | 16.7 µM |
| C=C1C(=O)OC2CC3(C)C=CC(=O)C(=C)C3CC12 (stereo not given) | – | 13.5 µM | – | 3.13 µM | – | 3.36 µM | – | – | – | 4.92 µM | – | 2.54 µM | – | – | – | 42.1 µM | – | 21.3 µM | – | 3.52 µM |
| C=C1C(=O)O[C@H]2C[C@@H](C)[C@@H]3CC(=O)OC[C@@]3(C)CC12 (stereo not given in full) | – | > 100 µM | – | > 100 µM | – | > 100 µM | – | 55.6 µM | – | 48.3 µM | – | > 100 µM | – | – | – | > 100 µM | – | > 100 µM | – | 57.3 µM |
| Cc1ccc2c(c1)C1(C)OC(CC(N)C1O)O2 (stereo not given) | – | > 100 µM | – | > 100 µM | – | > 100 µM | – | > 100 µM | – | > 100 µM | – | > 100 µM | – | – | – | > 100 µM | – | > 100 µM | – | > 100 µM |
| CN1CCc2c1nc(-c1ccccc1)c1c2N(C)CC1 | – | > 100 µM | – | 78.5 µM | – | > 100 µM | – | > 100 µM | – | > 100 µM | – | > 100 µM | – | – | – | > 100 µM | – | > 100 µM | – | > 100 µM |
